The text below walks through data of patent publication US10703746B2, “Mutant IDH1 inhibitors useful for treating cancer” (THE UNITED STATES OF AMERICA, AS REPRESENTED BY THE …, priority 2014, dated 2020).

Each structure is given as a SMILES string.

Test [1] concerns the target IDH1 R132H (Homo sapiens, UniProt O75874, R132H). The test is described as follows: IDH1 R132H enzymatic assay (NADPH depletion coupled to diaphorase/resazurin). The test is classed as biochemical. Conditions: IDH1 R132H enzymatic inhibition, IC50 class. (In general: Alamar Blue is a resazurin reagent that responds to reducing activity.)
The target in test [2] is IDH1 R132C (Homo sapiens, UniProt O75874, R132C). The test is described as follows: IDH1 R132C enzymatic assay (NADPH depletion coupled to diaphorase/resazurin). The class given is biochemical. Conditions: IDH1 R132C enzymatic inhibition, IC50 class. In outline: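 NADPH depletion, read via diaphorase/resazurin coupling, after adding substrate at 0.6 mM α-KG and 0.012 mM NADPH. Beforehand, 0.00032 mg/mL enzyme sat with compound 30 min at room temperature in pH 6.5 potassium phosphate buffer with MgCl2, glycerol and BSA.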
Sequence of IDH1 R132C (O75874 whole entry R132C): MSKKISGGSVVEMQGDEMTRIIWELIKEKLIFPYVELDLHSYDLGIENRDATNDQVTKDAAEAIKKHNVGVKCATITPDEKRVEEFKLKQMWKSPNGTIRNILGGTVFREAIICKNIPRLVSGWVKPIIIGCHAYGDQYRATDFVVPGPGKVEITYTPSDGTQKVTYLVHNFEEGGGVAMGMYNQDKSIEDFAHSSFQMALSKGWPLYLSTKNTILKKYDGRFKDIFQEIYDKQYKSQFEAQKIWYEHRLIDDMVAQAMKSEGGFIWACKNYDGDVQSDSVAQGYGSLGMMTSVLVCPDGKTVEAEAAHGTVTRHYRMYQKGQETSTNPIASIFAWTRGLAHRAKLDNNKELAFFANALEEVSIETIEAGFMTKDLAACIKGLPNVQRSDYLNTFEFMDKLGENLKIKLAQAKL

Sequence of IDH1 R132H (O75874 whole entry R132H): as the sequence (O75874 whole entry R132C) above, with C132H counted along it

A word on the IC50: it is the concentration that inhibits the measured activity by half. Low readings indicate inhibition by little substance, high ones a need for much substance. For the compound `CCc1cccc(CC)c1-n1c(C)c(C(=O)OC)cc(-c2nc(-c3ccc(Cl)cc3)cs2)c1=O` [Compound 268, methyl 5-(4-(4-chlorophenyl)thiazol-2-yl)-1-(2,6-diethylphenyl)-2-methyl-6-oxo-1,6-dihydropyridine-3-carboxylate], the 50% inhibitory concentration (IC50) was more than 20000 nM in test [1] and 5000 to 20000 nM in test [2].
Take `CC1(C)CC(=O)c2cc(-c3nc(-c4ccc(Cl)cc4)cs3)c(=O)n(-c3ccccc3CO)c2C1` [Compound 269]: the concentration for half-maximal inhibition (IC50) is 5000 to 20000 nM in test [1] and 1000 to 5000 nM in test [2].
Turning to `CCc1cccc(CC)c1-n1c(C)c(C(=O)NC2CCCCC2O)cc(-c2nc(-c3ccc(Cl)cc3)cs2)c1=O` (centres unmarked) [Compound 270], the concentration for half-maximal inhibition (IC50) in test [1] and in test [2] was 1000 to 5000 nM in each case.
As to `CCc1cccc(CC)c1-n1c(C)c(C(=O)N(C)C)cc(-c2nc(-c3ccc(Cl)cc3)cs2)c1=O` [Compound 271], the IC50 in test [1] and in test [2] was 1000 to 5000 nM each time.
`CCc1cccc(CC)c1-n1c(CC(C)C)c(C(=O)N2CCNCC2CO)cc(-c2nc(-c3ccc(Cl)cc3)cs2)c1=O` (centres unmarked) [Compound 272]: the concentration for half-maximal inhibition (IC50) in test [1] was 300 to 1000 nM; in test [2], less than 300 nM.
As to `CCc1cccc(CC)c1-n1c(CC(C)C)c(C(=O)N2CCNC(C)(CO)C2)cc(-c2nc(-c3ccc(Cl)cc3)cs2)c1=O` (centres unmarked) [Compound 273], the IC50 in test [1] is 300 to 1000 nM; in test [2] it was less than 300 nM.
For the compound `CCc1cccc(CC)c1-n1c(CC(C)C)c(C(=O)N2CCNCC2(C)C)cc(-c2nc(-c3ccc(Cl)cc3)cs2)c1=O` [Compound 274], the values for the IC50 in test [1] and in test [2] were 300 to 1000 nM and less than 300 nM, respectively.
On to `CCc1cccc(CC)c1-n1c(COC)c(C(=O)N2CCNCC2)cc(-c2nc(-c3ccc(Cl)cc3)cs2)c1=O` [Compound 275], for which the IC50 in test [1] and in test [2] was less than 300 nM each time.
`CCc1cccc(CC)c1-n1c(CC(C)C)c(C(=O)NC[C@@H](C)O)cc(-c2nc(-c3ccc(Cl)cc3)cs2)c1=O` [Compound 276]: the IC50 in test [1] was 300 to 1000 nM; in test [2], less than 300 nM.
For `Cc1noc(-n2c3c(cc(-c4nc(-c5ccc(Cl)cc5)cs4)c2=O)C(=O)CC(C)(C)C3)c1C` [Compound 277] the same measures were 1000 to 5000 nM and 1000 to 5000 nM.
Take `CCc1cccc(CC)c1-n1c(CCOC)c(C(=O)N2CCNCC2)cc(-c2nc(-c3ccc(Cl)cc3)cs2)c1=O` [Compound 278]: the 50% inhibitory concentration (IC50) in test [1] and in test [2] was less than 300 nM throughout.
Consider `CCc1cccc(C)c1-n1c2c(cc(-c3nc(-c4ccc(Cl)cc4)cs3)c1=O)C(=O)CC(C)(C)C2` [Compound 279], for which the half-maximal inhibitory concentration (IC50) in test [1] was 1000 to 5000 nM; in test [2], 300 to 1000 nM.
As to `COc1ccc(OC)c(-n2c3c(cc(-c4nc(-c5ccc(Cl)cc5)cs4)c2=O)C(=O)CNC3)c1` [Compound 280], the 50% inhibitory concentration (IC50) in test [1] and in test [2] was 5000 to 20000 nM each time.
In the case of `CCc1cccc(CC)c1-n1c2c(cc(-c3nc(-c4ccc(O)cc4)cs3)c1=O)C(=O)CC(C)(C)C2` [Compound 281], the half-maximal inhibitory concentration (IC50) in test [1] and in test [2] was 5000 to 20000 nM each time.
With `CCc1cccc(CC)c1-n1c2c(cc(-c3nc(-c4ccc(Cl)cc4)cs3)c1=O)C(=O)CC(C)(C)C2` [Compound 282], the IC50 was 300 to 1000 nM in test [1] and less than 300 nM in test [2].
With `CCc1cccc(CC)c1-n1c(CC(C)C)c(C(=O)N2CCN[C@H](CO)C2)cc(-c2nc(-c3ccc(Cl)cc3)cs2)c1=O` [Compound 283], the 50% inhibitory concentration (IC50) in test [1] was 300 to 1000 nM; in test [2], less than 300 nM.
Take `COc1ccc(OC)c(-n2c3c(cc(-c4cccc(-c5ccc(Cl)cc5)n4)c2=O)C(=O)CC(C)(C)C3)c1` [Compound 284]: the 50% inhibitory concentration (IC50) in test [1] and in test [2] was 5000 to 20000 nM each time.
Consider `CCOc1ccc(-c2nc(-c3cc(C(=O)N4CCNCC4)c(CC(C)C)n(-c4c(CC)cccc4CC)c3=O)sc2C)cc1` [Compound 285], for which the concentration for half-maximal inhibition (IC50) in test [1] and in test [2] was less than 300 nM throughout.
On to `CC(=O)c1ccccc1-n1c2c(cc(-c3nc(-c4ccc(Cl)cc4)cs3)c1=O)C(=O)CC(C)(C)C2` [Compound 286], for which the concentration for half-maximal inhibition (IC50) in test [1] and in test [2] was 1000 to 5000 nM in each case.
